Values of other authors, collected in US20250108061A1, “METHOD FOR TREATING ENDOMETRIOSIS AND PROVIDING EFFECTIVE CONTRACEPTION” (CHEMO RESEARCH, S.L., priority 2021, published 2025).

How the values were obtained:
women [1] = tested on: women
women [2] = settings: at high dosages (5-15 mg/daily)

SMILES | ovulation inhibition / ovarian activity (women [1]; 2 mg daily) | dosage necessary for ovulation inhibition (women [1]; given continuously over 28 days) | androgenic side effects (women [2])
C[C@]12CCC3=C4CCC(=O)C=C4CC[C@H]3[C@@H]1CC[C@@]2(O)CC#N [DNG, Dienogest] | provides ovulation inhibition, but ovarian activity is not completely suppressed |  | 
C#C[C@]1(OC(C)=O)CC[C@H]2[C@@H]3CCC4=CC(=O)CC[C@@H]4[C@H]3CC[C@@]21C [NETA, norethisterone acetate] |  | 0.35 mg/daily | can produce androgenic side effects, such as acne, hirsutism, weight gain and voice changes of slight severity in some women
